Two compounds from publication PMC9323733, “Efficacy of Vafidemstat in Experimental Autoimmune Encephalomyelitis Highlights the KDM1A/RCOR1/HDAC Epigenetic Axis in Multiple Sclerosis” (Pharmaceutics, 2022) can be followed below.

The test system of test [1] is spleen and lymph nodes of EAE mice. The test is described as follows: EAE, cell number in spleen and lymph nodes, flow cytometry of CD4 T cells. In kind it is in vivo, mouse. As to conditions: ORY-2001 0.5 mg/kg; for CD4+ T cell population of the lymph nodes / cellularity in lymph nodes / number of effector T cells in lymph nodes: FTY720 1.0 mg/kg. The text has this: For mechanistic studies in the EAE model, animals were divided into two groups, and samples were collected on day 26 post-immunization (sub-chronic phase), 3 days after the last dose, or on day 17 post-immunization for evaluating the effector phase. For this, mice were euthanized by intracardiac perfusion with saline (0.9%NaCl in H2O MilliQ) after pentobarbital anesthesia (Doletal), and blood samples, spleen, draining lymph nodes (DLNs: cervical, inguinal and axillary), brain, and spinal cord were removed. Serum samples were used for autoantibodies determination. Single-cell suspensions were obtained from spleen or pooled DLNs and used for the determination of cell number and auto-reactive and inflammatory responses, as described later. Brain and spinal segments of the cervical and lumbar regions were prepared separately and processed for RNA isolation, protein extraction, and histopathological analysis. Proteins were extracted from cervical and lumbar segments of spinal cord and brain from EAE mice via homogenization (50 mg tissue/mL) in lysis buffer (50 mM Tris-HCl, pH 7.4, 0.5 mM DTT, and 10 µg/mL proteinase inhibitors PMSF, pepstatin, and leupeptin). Samples were centrifuged (20.000× g, 15 min, 4 °C), and the supernatants were assayed for protein concentration (using Bradford method) and for cytokine/chemokine contents by using specific sandwich ELISAs according to manufacturer’s recommendations (BD Bioscience, Heidelberg, Germany and Peprotech, London, UK). In the TMEV model on day 86 after infection, mice were anesthetized and perfused transcardially, as described above. Spinal cords were obtained via extrusion with saline and prepared for further study.
For the identification of naïve, memory, and effector T cells, lymph nodes were isolated from different EAE groups at the peak of the disease. Cells were collected and distributed into polystyrene tubes for flow cytometry at 0.5 × 10^6 cells/tube and washed twice with washing buffer (10% FBS, 1% sodium azide in PBS; 300 g 5 min 4 °C). Before specific staining, cells were blocked with mouse BD Fc block to avoid nonspecific binding to Fc- receptors and marked with 7-AAD (7-amino-actinomycin D, Calbiochem, San Diego, CA, USA) to distinguish dead cells. Then, cells were incubated with PerCP/Cy5.5 conjugated anti-CD4, APC conjugated anti- CD62L (2 µg/mL), and PE conjugated anti-CD44 mAbs (0.5 µg/mL), following manufacturer’s recommendations (BioLegend) (Supplementary Materials Table S4). Briefly, after washing, cells were stained for 30 min at 4 °C, washed again, and analyzed in a FACSCalibur flow cytometer (BD Pharmingen, Le Pont-de-Claix, France). We used isotype-matched antibodies as controls.
Background: In flow cytometry, cells or beads pass a laser one at a time.

A further test deals with spinal cord of EAE mice. The test is described as follows: EAE, histopathology of spinal cord (demyelination plaques, infiltration). Format: in vivo, mouse. As to conditions: ORY-2001 0.5 mg/kg; for infiltrating/demyelinating plaques in spinal cord: day 17, FTY720 1.0 mg/kg. Here is the method: Cervical and lumbar spinal cord segments of spinal cords obtained from EAE mice sacrificed on day 17 or 26 post-immunization were divided and processed for inclusion and sectioning in paraffin and for inclusion in an optimal cutting temperature (OCT) compound and future cryosectioning of the samples. Spinal cord segments were immediately fixed with buffered 10% formalin for 48 h, dehydrated and included in paraffin using standard techniques. For a preliminary analysis, transversal sections (4 µm thickness) were stained with Luxol fast blue, cresyl violet, and hematoxylin following the Klüver–Barrera technique and were analyzed for the presence of areas of demyelination and cell infiltration using a light microscope (Leica, DM2000). After hematoxylin/eosin staining in the TMEV model, cell infiltration in the cervical and thoracic spinal cord was evaluated according to the criteria of Mansilla et al.: score 0: no lesion; 1: cellular infiltration only in the meninges; 2: very discrete and superficial infiltrates in the parenchyma; 3: moderate infiltration (less than 25%) in the white matter; 4: severe infiltration (less than 50%) in the white matter; and 5: high severe infiltration (>50%) in the white matter. The remaining spinal cord segments from EAE mice and from mice of the TMEV model were fixed with 4% paraformaldehyde/0.1 M phosphate buffer pH 7.4 for 12 h at 4 °C, cryopreserved in 30% sucrose in PBS for 24 h, embedded in OCT in liquid nitrogen, and stored at −80 °C prior to cryosectioning and immunohistochemistry. 20 and 30 µm-thick transversal cryostat sections from Tissue Tek embedded tissue were obtained from EAE and TMEV samples, respectively, and kept in a cryoprotection solution (30% ethylene glycol, 10 mg/mL polyvinylpyrrolidone-40 (PVP-40), 300 mg/mL sucrose in 60 mM PB) at −20 °C. Mouse #6 from the TMEV + vehicle group died on day 77 post-infection and was therefore not included.

In the case of `Nc1nnc(CN[C@@H]2C[C@H]2c2ccc(OCc3ccccc3)cc2)o1` [ORY-2001], in test [1] (day 17), the cellularity in spleen entry is “increased it significantly in the spleen”, the “CD4+ T cell population of the lymph nodes” value is “increased the CD^4+ T cell population of the lymph nodes”, the “cellularity in lymph nodes” value was “increased the cellularity in lymph nodes” and the “number of effector T cells in lymph nodes” value is on record as “significantly increased”. For the same compound, the “number of immune cells in spleen and lymph nodes” value in test [1] (day 26, ORY-LSD1 180 µg/kg) is given as “significant increase in the number of immune cells”. In addition, in the test with spinal cord of EAE mice, the “infiltrating/demyelinating plaques in spinal cord” value was “reduced the presence of infiltrating/demyelinating plaques in both cervical and lumbar segments”. In addition, the “plaques with inflammatory infiltrates and areas of demyelination” value with spinal cord of EAE mice (day 26, lumbar and cervical, ORY-LSD1 180 µg/kg) was “significantly reduced the number of plaques”.
As for `CCCCCCCCc1ccc(CCC(N)(CO)CO)cc1` [FTY720, Fingolimod, reference compound], in test [1] (day 17), the “CD4+ T cell population of the lymph nodes” value is reported as “increased the CD^4+ T cell population of the lymph nodes”, the “cellularity in lymph nodes” value is reported as “increased the cellularity in lymph nodes” and the “number of effector T cells in lymph nodes” value is “significantly increased”. The “infiltrating/demyelinating plaques in spinal cord” value with spinal cord of EAE mice is “reduced the number and size of demyelinating plaques in cervical but not in lumbar sections”.
